Measurements published in patent US12180226B2, “Spirotricycle RIPK1 inhibitors and methods of uses thereof” (Merck Sharp & Dohme LLC, priority 2021, dated 2024).
Counter-ions that a name gives are not always drawn.

Target: RIPK1 (recombinant GST-RIPK1 kinase domain, residues 1-327) (Homo sapiens (Human), UniProt Q13546)
Experiment: RIPK1-ADP-Glo Enzymatic Assay
Format: biochemical
Settings: ADP-Glo; 25 nM GST-RIPK1, 300 μM ATP; assay lower limit ~25 nM; read-out: RIPK1 V0 Ec50
Outline: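 Using dephosphorylated MBP (3 μM) as substrate and 300 μM ATP, 25 nM baculovirus-produced enzyme was reacted for 150 min after a 30-min compound pre-incubation. Luminescent ADP detection followed; lower confidence limit ~25 nM.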

Sequence of RIPK1 (recombinant GST-RIPK1 kinase domain, residues 1-327) (Q13546 1-327): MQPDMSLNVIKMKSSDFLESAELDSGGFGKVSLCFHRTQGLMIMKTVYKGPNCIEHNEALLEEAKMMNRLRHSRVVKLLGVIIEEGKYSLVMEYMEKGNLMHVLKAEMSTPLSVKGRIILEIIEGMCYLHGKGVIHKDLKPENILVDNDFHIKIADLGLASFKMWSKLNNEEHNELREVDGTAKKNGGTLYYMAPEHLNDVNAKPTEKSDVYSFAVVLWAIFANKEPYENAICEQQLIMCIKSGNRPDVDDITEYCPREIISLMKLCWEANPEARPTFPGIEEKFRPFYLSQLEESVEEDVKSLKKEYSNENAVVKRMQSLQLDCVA

Question: How did the EC50 turn out when `N#Cc1cncc([C@@H]2CC[C@H]3SC4(CCN(c5ccnc6c(F)cnn56)CC4)C(=O)N32)c1` [Example 4.112, 5-[(5′S,7a′R)-1-(3-fluoropyrazolo[1,5-a]pyrimidin-7-yl)-3′-oxotetrahydro-3′H-spiro[piperidine-4,2′-pyrrolo[2,1-b] [1,3]thiazol]-5′-yl]pyridine-3-carbonitrile] was run?
Answer: Its EC50 is less than 25 nM.

Question: With `O=C1N2[C@@H](CO[C@H]2c2cc(F)cc(F)c2)CC12CCN(c1ccnc3ccnn13)CC2` (stereo in doubt) [Example 4.147, 3′-(3,5-difluorophenyl)-1-(pyrazolo[1,5-a]pyrimidin-7-yl)dihydro-1′H,3′H,5′H-spiro[piperidine-4,6′-pyrrolo[1,2-c] [1,3]oxazol]-5′-one] as the molecule, how does the EC50 read?
Answer: Its EC50 is less than 25 nM.

Question: For `O=C(c1cnnn1-c1cccnc1)N1CCC2(CC1)O[C@@H]1CC[C@@H](c3cc(F)cc(F)c3)N1C2=O` [Example 6.30, (5′S,7a′R)-5′-(3,5-difluorophenyl)-1-[1-(pyridin-3-yl)-1H-1,2,3-triazole-5-car-bonyl]tetrahydro-3′H-spiro[piperidine-4,2′-pyrrolo[2,1-b][1,3]oxazol]-3′-one], which EC50 is on record?
Answer: The EC50 was 208 nM.

Question: `O=C(c1ccccc1)N1CCC2(CC1)O[C@@H]1[C@@H](F)C[C@@H](c3ccccc3)N1C2=O` [Example 6.108, (5′S,7′S,7a′R)-1-(benzenecarbonyl)-7′-fluoro-5′-phenyl-tetrahydro-3′H-spiro [piperidine-4,2′-pyrrolo[2,1-b][1,3]-oxazol]-3′-one] was tested. Which EC50 did it give?
Answer: The EC50 was 43.8 nM.

Question: Which EC50 does the source give for `CCOc1ncccc1C(=O)N1CCC2(CC1)O[C@@H]1CC[C@@H](c3cc(F)cc(F)c3)N1C2=O` [Example 6.38, (5′S,7a′R)-5′-(3,5-difluorophenyl)-1-(2-ethoxypyridine-3-carbonyl)tetrahydro-3′H-spiro[piperidine-4,2′-pyrrolo[2,1-b] [1,3]oxazol]-3′-one] here?
Answer: The EC50 was 867 nM.

Question: Which EC50 does the source give for `COC(=O)c1cnc(N2CCC3(CC2)O[C@@H]2CC[C@@H](c4ccccc4)N2C3=O)nc1C` [Example 4.189, methyl 4-methyl-2-[(5′S,7a′R)-3′-oxo-5′-phenyltetrahydro-1H,3′H-spiro[piperidine-4,2′-pyrrolo[2,1-b] [1,3]oxazol]-1-yl]pyrimidine-5-carboxylate] here?
Answer: Its EC50 is 25.4 nM.

Question: Which EC50 does the source give for `N#Cc1cc(N2CCC3(CC2)C[C@@H]2OC[C@@H](c4ccccc4)N2C3=O)ncn1` [Example 4.113, 6-[(3′R,7a′S)-5′-oxo-3′-phenyltetrahydro-1H,5′H-spiro[piperidine-4,6′-pyrrolo[2,1-b] [1,3]oxazol]-1-yl]pyrimidine-4-carbonitrile] here?
Answer: Its EC50 is 309 nM.

Question: `O=C1N2[C@@H](CC[C@H]2c2ccccc2)OC12CCN(c1nc(-c3ccccn3)cs1)CC2` [Example 11.4, (5′S,7a′R)-5′-phenyl-1-[4-(pyridin-2-yl)-1,3-thiazol-2-yl]tetrahydro-3′H-spiro[piperidine-4,2′-pyrrolo[2,1-b][1,3]oxazol]-3′-one] was tested. Which EC50 did it give?
Answer: Its EC50 is 61.1 nM.

Question: `O=C(c1cc(F)ccc1F)N1CCC2(CC1)O[C@@H]1CC[C@@H](c3cccc(F)c3)N1C2=O` [Example 1.6, (5′S,7a′R)-1-(2,5-difluorobenzene-1-carbonyl)-5′-(3-fluorophenyl)tetrahydro-3′H-spiro[piperidine-4,2′-pyrrolo[2,1-b] [1,3]oxazol]-3′-one] was tested. Which EC50 did it give?
Answer: The EC50 was less than 25 nM.

Question: For `N#Cc1cnc(N2CCC3(CC2)O[C@@H]2CC[C@@H](c4cc(F)cc(F)c4)N2C3=O)nc1` [Example 4.76, 2-[(5′S,7a′R)-5′-(3,5-difluorophenyl)-3′-oxotetrahydro-1H,3′H-spiro[piperidine-4,2′-pyrrolo[2,1-b] [1,3]oxazol]-1-yl]pyrimidine-5-carbonitrile], which EC50 is on record?
Answer: Its EC50 is 38.2 nM.

Question: `N#Cc1ccc(N2CCC3(CC2)O[C@@H]2CC[C@@H](c4cc(F)cc(F)c4)N2C3=O)n2nccc12` [Example 14.1, 7-((5′S,7a′R)-5′-(3,5-difluorophenyl)-3′-oxotetrahydro-3′H-spiro [piperidine-4,2′-pyrrolo [2,1-b]oxazol]-1-yl)pyrazolo[1,5-a]pyridine-4-carbonitrile, TFA] was tested. Which EC50 did it give?
Answer: Its EC50 is less than 25 nM.

Question: Which EC50 does the source give for `O=C(c1nc2ncccc2s1)N1CCC2(CC1)O[C@@H]1CC[C@@H](c3cc(F)cc(F)c3)N1C2=O` [Example 6.26] here?
Answer: Its EC50 is 321 nM.

Question: Which EC50 does the source give for `COc1cc(N2CCC3(CC2)O[C@@H]2CC[C@@H](c4cc(F)cc(F)c4)N2C3=O)nc(C)c1C#N` [Example 4.69, 6-[(5′S,7a′R)-5′-(3,5-difluorophenyl)-3′-oxotetrahydro-1H,3′H-spiro[piperidine-4,2′-pyrrolo[2,1-b] [1,3]oxazol]-1-yl]-4-methoxy-2-methylpyridine-3-carbonitrile] here?
Answer: The EC50 was 114 nM.

Question: How did the EC50 turn out when `N#Cc1ccc(C(=O)N2CCC3(CC2)O[C@@H]2CC[C@@H](c4cc(F)cc(F)c4)N2C3=O)cc1F` [Example 5.19, 4-((5′S,7a′R)-5′-(3,5-difluorophenyl)-3′-oxo-tetrahydro-3′H-spiro [piperidine-4,2′-pyrrolo-[2,1-b]oxazole]-1-carbon-yl)-2-fluorobenzonitrile] was run?
Answer: The EC50 was 333 nM.

Question: How did the EC50 turn out when `O=C(c1ccnc(C(F)(F)F)c1F)N1CCC2(CC1)O[C@@H]1CC[C@@H](c3cc(F)cc(F)c3)N1C2=O` [Example 6.74, (5′S,7a′R)-5′-(3,5-difluorophenyl)-1-[3-fluoro-2-(trifluoro-methyl)pyridine-4-carbonyl]tetrahydro-3′H-spiro[piperidine-4,2′-pyrrolo[2,1-b] [1,3]oxazol]-3′-one] was run?
Answer: The EC50 was 31.9 nM.

Question: With `O=C(c1cocn1)N1CCC2(CC1)O[C@@H]1CC[C@@H](c3cc(F)cc(F)c3)N1C2=O` [Example 5.54, (5′S,7a′R)-5′-(3,5-difluoro-phenyl)-1-(oxazole-4-car-bonyl)tetrahydro-3′H-spiro [piperidine-4,2′-pyrrolo-[2,1-b]oxazol]-3′-one] as the molecule, how does the EC50 read?
Answer: The EC50 was 27.2 nM.

Question: Which EC50 does the source give for `N#Cc1cscc1[C@@H]1CC[C@H]2OC3(CCN(C(=O)c4ccccc4)CC3)C(=O)N21` [Example 17.13, 4-((5′S,7a′R)-1-benzoyl-3′-oxotetrahydro-3′H-spiro[piperidine-4,2′-pyrrolo[2,1-b]oxazol]-5′-yl)thiophene-3-carbonitrile] here?
Answer: The EC50 was 208 nM.

Question: For `COc1cnc(N2CCC3(CC2)O[C@@H]2CC[C@@H](c4ccccc4)N2C3=O)n2ncnc12` [Example 19.6, (5′S,7a′R)-1-(8-methoxy[1,2,4]triazolo [1,5-c]pyrimidin-5-yl)-5′-phenyltetrahydro-3′H-spiro[piperidine-4,2′-pyrrolo[2,1-b][1,3]oxazol]-3′-one], which EC50 is on record?
Answer: The EC50 was 45.4 nM.

Question: `O=C1N2[C@@H](CC[C@H]2c2cc(F)cc(F)c2)OC12CCN(c1ccc(-c3ncco3)c3ncnn13)CC2` [Example 21.1, (5′S,7a′R)-5′-(3,5-Difluorophenyl)-1-(8-(oxazol-2-yl)-[1,2,4]triazolo[1,5-a]pyridin-5-yl)tetrahydro-3′H-spiro[piperidine-4,2′-pyrrolo[2,1-b]oxazol]-3′-one] was tested. Which EC50 did it give?
Answer: The EC50 was less than 25 nM.

Question: With `CC1CN(c2ccnc3ccnn23)CCC12O[C@@H]1CC[C@@H](c3ccccc3)N1C2=O` (stereo partly drawn) [Example 4.238, (4R,5′S,7a′R)-3-methyl-5′-phenyl-1-(pyrazolo[1,5-a]pyrimidin-7-yl)tetrahydro-3′H-spiro[piperidine-4,2′-pyrrolo[2,1-b] [1,3]oxazol]-3′-one] as the molecule, how does the EC50 read?
Answer: The EC50 was less than 25 nM.

Question: With `O=C1N2[C@@H](CC[C@H]2c2ccccc2)OC12CCN(c1cc(-c3ccsc3)ccn1)CC2` [Example 4.170, (5′S,7a′R)-5′-phenyl-1-[4-(thiophen-3-yl)pyridin-2-yl]tetrahydro-3′H-spiro[piperidine-4,2′-pyrrolo[2,1-b] [1,3]oxazol]-3′-one] as the molecule, how does the EC50 read?
Answer: The EC50 was less than 25 nM.

Question: For `O=C(c1cccc(Cl)c1)N1CCC2(CC1)O[C@@H]1CC[C@@H](c3cc(F)cc(F)c3)N1C2=O` [Example 6.9, (5′S,7a′R)-1-(3-chloro-benzene-1-carbonyl)-5′-(3,5-difluoro-phenyl)tetrahydro-3′H-spiro[piperidine-4,2′-pyrrolo[2,1-b] [1,3]oxazol]-3′-one], which EC50 is on record?
Answer: The EC50 was less than 25 nM.

Question: Which EC50 does the source give for `O=C(c1ccccc1)N1CCC2(CC1)O[C@@H]1CC[C@@H](c3cnccn3)N1C2=O` [Example 17.1, (5′S,7a′R)-1-benzoyl-5′-(pyrazin-2-yl)tetrahydro-3′H-spiro[piperidine-4,2′-pyrrolo[2,1-b]oxazol]-3′-one, TFA] here?
Answer: The EC50 was 34.4 nM.

Question: With `N#Cc1ccccc1C(=O)N1CCC2(CC1)O[C@@H]1CC[C@@H](c3cc(F)cc(F)c3)N1C2=O` [Example 5.13, 2-((5′S,7a′R)-5′-(3,5-difluorophenyl)-3′-oxo-tetrahydro-3′H-spiro [piperidine-4,2′-pyrrolo-[2,1-b]oxazole]-1-carbon-yl)benzonitrile] as the molecule, how does the EC50 read?
Answer: The EC50 was 277 nM.

Question: How did the EC50 turn out when `COC(=O)c1cnc(N2CCC3(CC2)O[C@@H]2CC[C@@H](c4ccccc4)N2C3=O)cc1Cl` [Example 4.211, methyl 4-chloro-6-[(5′S,7a′R)-3′-oxo-5′-phenyltetrahydro-1H,3′H-spiro[piperidine-4,2′-pyrrolo[2,1-b] [1,3]oxazol]-1-yl]pyridine-3-carboxylate] was run?
Answer: The EC50 was less than 25 nM.

Question: How did the EC50 turn out when `N#Cc1cnc(N2CCC3(CC2)O[C@@H]2CC[C@@H](c4ccccc4)N2C3=O)cc1OC(F)F` [Example 4.206, 4-(difluoromethoxy)-6-[(5′S,7a′R)-3′-oxo-5′-phenyltetrahydro-1H,3′H-spiro[piperidine-4,2′-pyrrolo[2,1-b] [1,3]oxazol]-1-yl]pyridine-3-carbonitrile] was run?
Answer: The EC50 was less than 25 nM.

Question: `COc1cc(F)cc([C@@H]2CC[C@H]3OC4(CCN(C(=O)c5ccccc5)CC4)C(=O)N32)c1` [Example 17.9, (5′S,7a′R)-1-benzoyl-5′-(3-fluoro-5-methoxyphenyl)tetrahydro-3′H-spiro[piperidine-4,2′-pyrrolo[2,1-b]oxazol]-3′-one] was tested. Which EC50 did it give?
Answer: The EC50 was 40.7 nM.

Question: How did the EC50 turn out when `COc1ccc(F)c(C(=O)N2CCC3(CC2)O[C@@H]2CC[C@@H](c4cc(F)cc(F)c4)N2C3=O)c1` [Example 6.6, (5′S,7a′R)-5′-(3,5-difluorophenyl)-1-(2-fluoro-5-methoxy-benzene-1-carbonyl) tetrahydro-3′H-spiro [piperidine-4,2′-pyrrolo[2,1-b][1,3]oxazol]-3′-one] was run?
Answer: The EC50 was less than 25 nM.
